Assay results reported in article PMC12754617, “Ruthenium-enhanced curcumin derivatives target tumor growth and cancer-related inflammation in head and neck cancer models” (Frontiers in Oncology, 2025).
≈ marks a conversion by molar mass, not a printed value.

Assays:
[1] = test system: NF-κB in THP1-Blue NF-κB cells; test: NF-κB activity assay (SEAP reporter, LPS-induced); type: cell-based; conditions: 20 μM, LPS 10 ng/mL
Protocol: THP1-Blue NF-κB cells, NF-κB secreted embryonic alkaline phosphatase (SEAP) reporter monocytes (InvivoGen, USA), were assayed after 20–24 h of incubation following the manufacturer’s protocol. Briefly, cells were seeded at 1 × 10^6 cells/mL in RPMI medium in 96-well plates (180 μL) and treated with complex 3 or 4, Lipopolysaccharide (LPS) (10 ng/mL; […] The next day, NF-κB activation was assessed via the secretion of SEAP. Supernatants (20 μL) were transferred to 96-well plates, and 180 μL of Quanti-Blue was added. Plates were incubated for 2 h at 37°C, and absorbance was measured at 600 nm using an […] 200 PRO microplate reader (TECAN, Switzerland).

THP1-Blue NF-κB cells = test: MTT viability assay of THP1-Blue NF-κB cells; type: cell-based; conditions: concentrations of the NF-κB activity assay, overnight
Protocol: A total of 20 μL of sterile filtered MTT (Sigma-Aldrich, Merck, Germany) solution (5 mg/mL in PBS) was added to the remaining overnight culture of THP1-Blue NF-κB cells from the above NF-κB activity assay in 96-well plates, which were incubated at 37°C (see above). After 2 h of incubation at 37°C, the supernatant was removed, and the purple formazan product generated in the cells was dissolved by the addition of 100 μL of DMSO to each well. The plates were then gently shaken for 30 s at room temperature to dissolve the precipitates. The absorbance was measured at 570 nm using an […] 200 PRO microplate reader (TECAN, Switzerland) ([43]).

IKKβ = target: T1, IKKβ (Homo sapiens, UniProt O14920); test: IKKβ inhibition assay (IKKβ Kinase Assay Kit); type: biochemical; conditions: fivefold higher concentration than 1 μM
T1 construct: purchased BPS Bioscience
T1 sequence (O14920 1-756): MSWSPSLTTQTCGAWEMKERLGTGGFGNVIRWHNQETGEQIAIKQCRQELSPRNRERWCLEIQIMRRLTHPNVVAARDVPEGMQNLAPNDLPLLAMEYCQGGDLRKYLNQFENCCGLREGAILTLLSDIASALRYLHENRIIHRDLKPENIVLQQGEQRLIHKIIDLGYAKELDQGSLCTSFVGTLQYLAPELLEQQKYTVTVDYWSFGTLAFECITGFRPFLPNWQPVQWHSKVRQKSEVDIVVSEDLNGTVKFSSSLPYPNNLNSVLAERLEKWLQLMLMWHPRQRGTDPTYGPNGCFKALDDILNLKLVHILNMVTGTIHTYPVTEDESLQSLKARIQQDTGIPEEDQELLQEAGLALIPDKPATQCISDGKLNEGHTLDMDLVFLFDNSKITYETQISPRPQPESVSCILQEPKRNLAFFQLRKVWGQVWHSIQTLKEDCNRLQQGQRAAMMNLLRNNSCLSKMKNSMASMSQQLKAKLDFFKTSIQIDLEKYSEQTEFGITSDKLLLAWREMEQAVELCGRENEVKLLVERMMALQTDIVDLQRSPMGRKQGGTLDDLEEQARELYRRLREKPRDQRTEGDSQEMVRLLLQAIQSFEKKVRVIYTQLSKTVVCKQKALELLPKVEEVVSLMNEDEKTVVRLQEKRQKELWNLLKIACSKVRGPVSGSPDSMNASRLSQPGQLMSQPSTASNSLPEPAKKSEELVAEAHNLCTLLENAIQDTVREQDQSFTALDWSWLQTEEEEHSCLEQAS
Protocol: IκB kinase beta (IKKβ) inhibition was determined using the IKKβ Kinase Assay Kit (BPS Bioscience, San Diego, California, USA). […] Kinase-Glo® MAX (Promega, #V6071, Madison, Wisconsin, USA) was used as the detection reagent, with an incubation time of 15 min. Blank values were subtracted from all measurements. Luminescence was measured with an integration time of 1 s using a Spark Microplate Reader (Tecan, Switzerland).

CAL 27 cell line [2] = test system: CAL 27 cell line; design: method as in PMID 32060973, PMID 32099333; conditions: CAL 27 cell line ref 46, 47; cited from earlier work
SCC-9 cell line [3] = test system: SCC-9 cell line; design: method as in PMID 32628350, PMID 25450696; conditions: SCC-9 cell line ref 48, 49; cited from earlier work
FaDu cell line [4] = test system: FaDu cell line; design: method as in PMID 32628350; conditions: FaDu cell line ref 48; cited from earlier work
Detroit 562 cell line = test system: Detroit 562 cell line; design: method as in PMID 32121279, PMID 19317462; conditions: Detroit 562 cell line ref 50, 51; cited from earlier work
Hep-2 cell line [5] = test system: Hep-2 cell line; design: method as in PMID 23513724; conditions: HPV-positive Hep-2 cell line ref 52; cited from earlier work
KB cell line = test system: KB cell line; design: method as in PMID 36278627; conditions: 48 h of treatment ref 53; cited from earlier work
HGF = test system: HGF; design: method as in PMID 34657625; conditions: concentration range 0.1–20 μM ref 54; cited from earlier work
A549 cell line = test system: A549 cell line; design: method as in PMID 32598409; conditions: A549 cell line ref 33; cited from earlier work
CAL 27 cell line [6] = conditions: cited from earlier work
CAL 27 cell line [7] = test system: CAL 27 cell line; design: method as in PMID 32099333, PMID 25767602; conditions: CAL 27 cell line ref 47, 55; cited from earlier work
SCC-9 cell line [8] = test system: SCC-9 cell line; design: method as in PMID 25450696; conditions: SCC-9 cell line ref 49; cited from earlier work
FaDu cell line [9] = test system: FaDu cell line; design: method as in PMID 25767602; conditions: FaDu cell line ref 55; cited from earlier work
Hep-2 cell line [10] = conditions: Hep-2 cell line ref 56; cited from earlier work
OSCC cells = test system: OSCC cells; design: method as in PMID 32391111; conditions: Ohnishi et al. ref 57; cited from earlier work

Inhibition of IKKβ activity (IKKβ): approximately 30%
SMILES: COc1cc(/C=C/C(=O)CC(=O)/C=C/c2ccc(O)c(OC)c2)ccc1O [Curcumin, curcumin]
Reduction of LPS-induced NF-κB activation [1]: approximately 60%
Cytotoxicity in THP1-Blue NF-κB cells (MTT) (THP1-Blue NF-κB cells): Neither complex 3, complex 4, nor curcumin exhibited significant cytotoxicity
IC50 (CAL 27 cell line [2]): 49.9 µM
IC50 (SCC-9 cell line [3]): 40.9 µM
IC50 (FaDu cell line [4]): 24.8 µM
Concentration showing cytotoxicity (Detroit 562 cell line): around 20 μM
IC50 (Hep-2 cell line [5]): ~50 µM
IC50 (KB cell line): 8.84 mg/L (≈ 24 µM)
Effect on cell viability (HGF): did not significantly affect cell viability
IC50 (A549 cell line): 13.1 µM
Concentration reducing cell migratory capacity (CAL 27 cell line [6]; CAL 27 cell line ref 47, 55): 50 µM
Concentration significantly inhibiting migration (CAL 27 cell line [6]; CAL 27 cells, Ma et al. ref 47): 100 µM
Concentration inhibiting colony formation (CAL 27 cell line [7]): ≥ 12.5 µM
Concentration suppressing colony formation (SCC-9 cell line [8]): 40 µM
Concentration suppressing colony formation (FaDu cell line [9]): 12.5 µM
Concentration with significant inhibition of colony formation and cell migration (Hep-2 cell line [10]): 20 µM
Concentration inhibiting migration (OSCC cells): 15 µM
